CC(C)NC(=O)COc1cccc(-c2nc(Nc3ccc4[nH]ncc4c3)c3ccccc3n2)c1 [Belumosudil, 2-{3-[4-(1H-indazol-5-ylamino)-2-quinazolinyl]phenoxy}-N-(propan-2-yl) acetamide]
Urinary retention: # Events (Cohort 2 200 mg BID): 2 | Urinary retention: Affected/At Risk (Cohort 2 200 mg BID): 1/16 | Urinary retention: Affected/At Risk (%) (Cohort 2 200 mg BID): (6.25%) | Urinary tract infection: # Events (Cohort 2 200 mg BID): 2 | Urinary tract infection: Affected/At Risk (Cohort 2 200 mg BID): 2/16 | Urinary tract infection: Affected/At Risk (%) (Cohort 2 200 mg BID): (12.5%) | Urinary tract pain: # Events (Cohort 2 200 mg BID): 1 | Urinary tract pain: Affected/At Risk (Cohort 2 200 mg BID): 1/16 | Urinary tract pain: Affected/At Risk (%) (Cohort 2 200 mg BID): (6.25%) | Urine output decreased: # Events (Cohort 2 200 mg BID): 1 | Urine output decreased: Affected/At Risk (Cohort 2 200 mg BID): 1/16 | Urine output decreased: Affected/At Risk (%) (Cohort 2 200 mg BID): (6.25%) | Vascular access complication: # Events (Cohort 2 200 mg BID): 1 | Vascular access complication: Affected/At Risk (Cohort 2 200 mg BID): 1/16 | Vascular access complication: Affected/At Risk (%) (Cohort 2 200 mg BID): (6.25%) | Vertigo: # Events (Cohort 2 200 mg BID): 0 | Vertigo: Affected/At Risk (Cohort 2 200 mg BID): 0/16 | Vertigo: Affected/At Risk (%) (Cohort 2 200 mg BID): (0%) | Vision blurred: # Events (Cohort 2 200 mg BID): 2 | Vision blurred: Affected/At Risk (Cohort 2 200 mg BID): 2/16 | Vision blurred: Affected/At Risk (%) (Cohort 2 200 mg BID): (12.5%) | Vomiting: # Events (Cohort 2 200 mg BID): 3 | Vomiting: Affected/At Risk (Cohort 2 200 mg BID): 3/16 | Vomiting: Affected/At Risk (%) (Cohort 2 200 mg BID): (18.75%) | Weight decreased: # Events (Cohort 2 200 mg BID): 0 | Weight decreased: Affected/At Risk (Cohort 2 200 mg BID): 0/16 | Weight decreased: Affected/At Risk (%) (Cohort 2 200 mg BID): (0%) | Weight increased: # Events (Cohort 2 200 mg BID): 2 | Weight increased: Affected/At Risk (Cohort 2 200 mg BID): 1/16 | Weight increased: Affected/At Risk (%) (Cohort 2 200 mg BID): (6.25%) | White blood cell count decreased: # Events (Cohort 2 200 mg BID): 0 | White blood cell count decreased: Affected/At Risk (Cohort 2 200 mg BID): 0/16 | White blood cell count decreased: Affected/At Risk (%) (Cohort 2 200 mg BID): (0%) | ALT/AST increased all grade, No. (Cohort 2 200 mg BID n=16): 5 | ALT/AST increased grade ≥3, No. (Cohort 2 200 mg BID n=16): 2 | Anemia grade ≥3, No. (Cohort 2 200 mg BID n=16): 1 | Any AE, No. of patients (Cohort 2 200 mg BID n=16): 16 | Cough all grade, No. (Cohort 2 200 mg BID n=16): 4 | Death, No. (Cohort 2 200 mg BID n=16): 0 | Diarrhea all grade, No. (Cohort 2 200 mg BID n=16): 5 | Drug-related AE, No. (Cohort 2 200 mg BID n=16): 8 | Drug-related SAE, No. (Cohort 2 200 mg BID n=16): 0 | Dyspnea all grade, No. (Cohort 2 200 mg BID n=16): 6 | Dyspnea grade ≥3, No. (Cohort 2 200 mg BID n=16): 2 | Fatigue all grade, No. (Cohort 2 200 mg BID n=16): 3 | Grade ≥3 AE, No. (Cohort 2 200 mg BID n=16): 10 | Headache all grade, No. (Cohort 2 200 mg BID n=16): 3 | Hyperglycemia grade ≥3, No. (Cohort 2 200 mg BID n=16): 0 | Hypertension all grade, No. (Cohort 2 200 mg BID n=16): 2 | Hypoxia grade ≥3, No. (Cohort 2 200 mg BID n=16): 1 | Lung infection or pneumonia grade ≥3, No. (Cohort 2 200 mg BID n=16): 2 | Nausea all grade, No. (Cohort 2 200 mg BID n=16): 4 | Peripheral edema all grade, No. (Cohort 2 200 mg BID n=16): 4 | SAE, No. (Cohort 2 200 mg BID n=16): 6 | URI all grade, No. (Cohort 2 200 mg BID n=16): 9 | Patients with relative dose intensity >95% (Cohort 3): 71% | Abdominal distension: # Events (Cohort 3 400 mg QD): 1 | Abdominal distension: Affected/At Risk (Cohort 3 400 mg QD): 1/21 | Abdominal distension: Affected/At Risk (%) (Cohort 3 400 mg QD): (4.76%) | Abdominal pain upper: # Events (Cohort 3 400 mg QD): 0 | Abdominal pain upper: Affected/At Risk (Cohort 3 400 mg QD): 0/21 | Abdominal pain upper: Affected/At Risk (%) (Cohort 3 400 mg QD): (0%) | Abdominal pain: # Events (Cohort 3 400 mg QD): 6 | Abdominal pain: Affected/At Risk (Cohort 3 400 mg QD): 4/21 | Abdominal pain: Affected/At Risk (%) (Cohort 3 400 mg QD): (19.05%) | Actinic keratosis: # Events (Cohort 3 400 mg QD): 1 | Actinic keratosis: Affected/At Risk (Cohort 3 400 mg QD): 1/21 | Actinic keratosis: Affected/At Risk (%) (Cohort 3 400 mg QD): (4.76%) | Acute kidney injury: # Events (Cohort 3 400 mg QD): 6 | Acute kidney injury: Affected/At Risk (Cohort 3 400 mg QD): 2/21 | Acute kidney injury: Affected/At Risk (%) (Cohort 3 400 mg QD): (9.52%) | Acute respiratory distress syndrome: # Events (Cohort 3 400 mg QD): 0 | Acute respiratory distress syndrome: Affected/At Risk (Cohort 3 400 mg QD): 0/21 | Acute respiratory distress syndrome: Affected/At Risk (%) (Cohort 3 400 mg QD): (0%) | Adrenal insufficiency: # Events (Cohort 3 400 mg QD): 0 | Adrenal insufficiency: Affected/At Risk (Cohort 3 400 mg QD): 0/21 | Adrenal insufficiency: Affected/At Risk (%) (Cohort 3 400 mg QD): (0%) | Alanine aminotransferase increased: # Events (Cohort 3 400 mg QD): 2 | Alanine aminotransferase increased: Affected/At Risk (Cohort 3 400 mg QD): 2/21 | Alanine aminotransferase increased: Affected/At Risk (%) (Cohort 3 400 mg QD): (9.52%) | Anaemia: # Events (Cohort 3 400 mg QD): 0 | Anaemia: Affected/At Risk (Cohort 3 400 mg QD): 0/21 | Anaemia: Affected/At Risk (%) (Cohort 3 400 mg QD): (0%) | Anal incontinence: # Events (Cohort 3 400 mg QD): 0 | Anal incontinence: Affected/At Risk (Cohort 3 400 mg QD): 0/21 | Anal incontinence: Affected/At Risk (%) (Cohort 3 400 mg QD): (0%) | Anxiety: # Events (Cohort 3 400 mg QD): 3 | Anxiety: Affected/At Risk (Cohort 3 400 mg QD): 3/21 | Anxiety: Affected/At Risk (%) (Cohort 3 400 mg QD): (14.29%) | Arthralgia: # Events (Cohort 3 400 mg QD): 6 | Arthralgia: Affected/At Risk (Cohort 3 400 mg QD): 5/21 | Arthralgia: Affected/At Risk (%) (Cohort 3 400 mg QD): (23.81%) | Aspartate aminotransferase increased: # Events (Cohort 3 400 mg QD): 1 | Aspartate aminotransferase increased: Affected/At Risk (Cohort 3 400 mg QD): 1/21 | Aspartate aminotransferase increased: Affected/At Risk (%) (Cohort 3 400 mg QD): (4.76%) | Asthenia: # Events (Cohort 3 400 mg QD): 0 | Asthenia: Affected/At Risk (Cohort 3 400 mg QD): 0/21 | Asthenia: Affected/At Risk (%) (Cohort 3 400 mg QD): (0%) | Atelectasis: # Events (Cohort 3 400 mg QD): 0 | Atelectasis: Affected/At Risk (Cohort 3 400 mg QD): 0/21 | Atelectasis: Affected/At Risk (%) (Cohort 3 400 mg QD): (0%) | Back pain: # Events (Cohort 3 400 mg QD): 1 | Back pain: Affected/At Risk (Cohort 3 400 mg QD): 1/21 | Back pain: Affected/At Risk (%) (Cohort 3 400 mg QD): (4.76%) | Balance disorder: # Events (Cohort 3 400 mg QD): 0 | Balance disorder: Affected/At Risk (Cohort 3 400 mg QD): 0/21 | Balance disorder: Affected/At Risk (%) (Cohort 3 400 mg QD): (0%) | Basal cell carcinoma: # Events (Cohort 3 400 mg QD): 0 | Basal cell carcinoma: Affected/At Risk (Cohort 3 400 mg QD): 0/21 | Basal cell carcinoma: Affected/At Risk (%) (Cohort 3 400 mg QD): (0%) | Benign prostatic hyperplasia: # Events (Cohort 3 400 mg QD): 0 | Benign prostatic hyperplasia: Affected/At Risk (Cohort 3 400 mg QD): 0/21 | Benign prostatic hyperplasia: Affected/At Risk (%) (Cohort 3 400 mg QD): (0%) | Blepharitis: # Events (Cohort 3 400 mg QD): 2 | Blepharitis: Affected/At Risk (Cohort 3 400 mg QD): 1/21 | Blepharitis: Affected/At Risk (%) (Cohort 3 400 mg QD): (4.76%) | Blister: # Events (Cohort 3 400 mg QD): 1 | Blister: Affected/At Risk (Cohort 3 400 mg QD): 1/21 | Blister: Affected/At Risk (%) (Cohort 3 400 mg QD): (4.76%) | Blood alkaline phosphatase increased: # Events (Cohort 3 400 mg QD): 0 | Blood alkaline phosphatase increased: Affected/At Risk (Cohort 3 400 mg QD): 0/21 | Blood alkaline phosphatase increased: Affected/At Risk (%) (Cohort 3 400 mg QD): (0%) | Blood chloride decreased: # Events (Cohort 3 400 mg QD): 0 | Blood chloride decreased: Affected/At Risk (Cohort 3 400 mg QD): 0/21 | Blood chloride decreased: Affected/At Risk (%) (Cohort 3 400 mg QD): (0%) | Blood cholesterol increased: # Events (Cohort 3 400 mg QD): 1 | Blood cholesterol increased: Affected/At Risk (Cohort 3 400 mg QD): 1/21 | Blood cholesterol increased: Affected/At Risk (%) (Cohort 3 400 mg QD): (4.76%) | Blood creatine increased: # Events (Cohort 3 400 mg QD): 0 | Blood creatine increased: Affected/At Risk (Cohort 3 400 mg QD): 0/21 | Blood creatine increased: Affected/At Risk (%) (Cohort 3 400 mg QD): (0%) | Blood creatine phosphokinase increased: # Events (Cohort 3 400 mg QD): 0 | Blood creatine phosphokinase increased: Affected/At Risk (Cohort 3 400 mg QD): 0/21 | Blood creatine phosphokinase increased: Affected/At Risk (%) (Cohort 3 400 mg QD): (0%) | Blood creatinine increased: # Events (Cohort 3 400 mg QD): 2 | Blood creatinine increased: Affected/At Risk (Cohort 3 400 mg QD): 2/21 | Blood creatinine increased: Affected/At Risk (%) (Cohort 3 400 mg QD): (9.52%)

Reference: patent US20250255867A1 (Kadmon Corporation, LLC, priority 2022, published 2025)
